According to PubChem BioAssay (NCI):
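Dose response: 5 concentrations. Exposure: 48 h. Format: 96-well plates. Endpoint: linear interpolation; highest concentration if not reached. Abbreviation: GI50, concentration required for 50% inhibition of growth. TGI: total growth inhibition.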

Experiments:
Test in all cases: DTP human tumour cell line panel, 48 h
HCT-116 colon = tested on: HCT-116 colon
IGROV1 ovarian = tested on: IGROV1 ovarian
KM12 colon = tested on: KM12 colon
MOLT-4 leukemia = tested on: MOLT-4 leukemia
NCI-H522 lung = tested on: NCI-H522 lung
OVCAR-4 ovarian = tested on: OVCAR-4 ovarian
SF-539 CNS = tested on: SF-539 CNS
SK-MEL-28 melanoma = tested on: SK-MEL-28 melanoma
SW-620 colon = tested on: SW-620 colon
UO-31 renal = tested on: UO-31 renal

| SMILES | TGI (HCT-116 colon) | TGI (IGROV1 ovarian) | TGI (KM12 colon) | TGI (MOLT-4 leukemia) | TGI (NCI-H522 lung) | TGI (OVCAR-4 ovarian) | TGI (SF-539 CNS) | TGI (SK-MEL-28 melanoma) | TGI (SW-620 colon) | TGI (UO-31 renal) | GI50 (HCT-116 colon) | GI50 (IGROV1 ovarian) | GI50 (KM12 colon) | GI50 (MOLT-4 leukemia) | GI50 (NCI-H522 lung) | GI50 (OVCAR-4 ovarian) | GI50 (SF-539 CNS) | GI50 (SK-MEL-28 melanoma) | GI50 (SW-620 colon) | GI50 (UO-31 renal) |
| --- | --- | --- | --- | --- | --- | --- | --- | --- | --- | --- | --- | --- | --- | --- | --- | --- | --- | --- | --- | --- |
| CC1CC2CC(=O)CC3(C1)C2CCCN3CCCO (stereo not given) | > 100 µM | > 100 µM | > 100 µM | > 100 µM | > 100 µM | > 100 µM | > 100 µM | > 100 µM | > 100 µM | > 100 µM | – | – | – | – | – | – | – | – | – | – |
| OCCCOC(c1ccccc1)(c1ccccc1)c1ccccc1 | > 100 µM | > 100 µM | > 100 µM | > 100 µM | > 100 µM | > 100 µM | > 100 µM | > 100 µM | > 100 µM | > 100 µM | – | – | – | – | – | – | – | – | – | – |
| C1C[OH+]CC[OH+]CCNCC[OH+]CC[OH+]CCN1.[Cl-].[Pt+4] | > 100 µM | > 100 µM | > 100 µM | > 100 µM | > 100 µM | > 100 µM | > 100 µM | > 100 µM | > 100 µM | > 100 µM | > 100 µM | > 100 µM | > 100 µM | > 100 µM | 26.3 µM | > 100 µM | > 100 µM | > 100 µM | 57.3 µM | > 100 µM |
| COC[C@@H](N=CN1CCc2cc(OC)c(OC)cc2[C@@H]1C)C(C)(C)C | > 100 µM | > 100 µM | > 100 µM | > 100 µM | > 100 µM | > 100 µM | > 100 µM | > 100 µM | > 100 µM | > 100 µM | – | – | – | – | – | – | – | – | – | – |
| COc1ccccc1/C=C1\CCC(CCN(C)C)(C2=CCCC2)C1=O (stereo not given) | 25.3 µM | 28.6 µM | 33 µM | 54.3 µM | 27.1 µM | 35.2 µM | 29.5 µM | 32.7 µM | 32.1 µM | 31.4 µM | – | – | – | – | – | – | – | – | – | – |
| O=C(O)[C@@H]1[C@H](C(=O)O)[C@H](C(=O)O)C[C@@H]1C(=O)O | > 100 µM | > 100 µM | > 100 µM | > 100 µM | > 100 µM | > 100 µM | > 100 µM | > 100 µM | > 100 µM | > 100 µM | – | – | – | – | – | – | – | – | – | – |
| CCn1c(C(=O)N(C2CC2)C2CC2)cc2c3c(ncn3C)c(Nc3cc(C)n(C)n3)nc21 | > 100 µM | > 100 µM | > 100 µM | > 100 µM | > 100 µM | > 100 µM | > 100 µM | > 100 µM | > 100 µM | > 100 µM | > 100 µM | 7.62 µM | 0.506 µM | > 100 µM | > 100 µM | > 100 µM | > 100 µM | > 100 µM | > 100 µM | > 38.5 µM |
| COc1ccc(NC(=O)C(=O)Cc2nc3ccc([N+](=O)[O-])cc3[nH]c2=O)c(OC)c1 | > 100 µM | > 100 µM | > 100 µM | > 100 µM | > 100 µM | > 100 µM | > 100 µM | > 100 µM | > 100 µM | > 100 µM | – | – | – | – | – | – | – | – | – | – |
| O=C(/C=C/c1ccccc1)CC1OC(=O)c2ccccc21 (stereo not given) | > 100 µM | > 100 µM | > 100 µM | > 100 µM | > 100 µM | > 100 µM | > 100 µM | > 100 µM | > 100 µM | > 100 µM | – | – | – | – | – | – | – | – | – | – |
